Laboratory results from patent US11613526B2, “Thiophene derivatives” (priority 2018, dated 2023).

Tests used:
[1] = molecular target: T1, interaction of the PAS B domains of HIF-2α and HIF-1β (Homo sapiens, UniProt Q99814); experiment: Alphascreen protein protein interaction assay; assay type: biochemical
T1 construct: His6Gb1-TEV-GEFKGL-HIF2α (240-350aa)-G
Protocol: Alphascreen Protein Protein Interaction Assay:
For the assessment of functional disruption of the interaction of the PAS B domains of HIF-2α and HIF-1β an AlphaScreen assay was set-up. The assay was performed in 384 well light gray Perkin Elmer microtiter plates in a total volume of 7 μl. […] The detection of the protein protein interaction was performed by adding AlphaLISA® Anti-FLAG Acceptor beads (fc 20 μg/ml) and AlphaScreen® Nickel Chelate Donor beads (fc 9 μg/ml) (both Perkin Elmer) and the reaction was incubated for 240 min at 23° C. in the dark. If donor and acceptor beads get in close proximity to each other caused by interaction of HIF2alpha PAS B with HIF-1ß PAS B domain it results in a luminescence signal at 615 nm after excitation at 680 nm. The PPI disruption activity of a compound was calculated directly from the loss in Alphascreen signal. The AlphaScreen signal was measured with an Envision multimode reader (Perkin Elmer LAS Germany GmbH). The control value used was the inhibitor-free reaction. The pharmacological zero value used was determined in the absence of HIF-11. The inhibitory values (IC50) were calculated using Assay analyser from GeneData.

[2] = test system: HIF2α-HIF1β activity in 786-O HRE-luc2P cells; experiment: Cellular mechanistic assay: 786-O HRE-luc2P reporter assay; assay type: cell-based; details: Homo sapiens, 786-0, 48 h, read-out: HRE-luc2P reporter assay IC50
Protocol: This reporter assay was designed to monitor binding of the HIF2α-HIF1β complex to specific DNA fragment called hypoxia response element (HRE) in physiologically relevant cell line. […] HRE is present in promoters of various genes regulated by hypoxia inducible factors. […] As a result, this reporter assay allows monitoring of HIF2α-HIF1β activity by determining the activity of produced luciferase. Cell culture is performed in RPMI media supplemented with 10% FBS, Sodium Pyruvate, Penicillin/Streptomycin, Glutamine, 200 μg/ml Hygromycin Gold.
The assay was performed in 384 well white, opaque microtiterplate with transparent bottom (Greiner Bio-one, Frickenhausen). […] 50 μl of cell suspension (2000 cells) per well were dispensed in microtiter plates and incubated over night at 37° C. in a 5% CO2 incubator. Compounds were added with Labcyte Echo dispenser (fc 0.2% DMSO, 9 concentrations dilution raw starting at 10 μM). Plates were incubated for 48 h at 37° C. in a 5% CO2 incubator. After this 45 μl of pre-warmed ONE-Glo™ EX Reagent were added per well. Plates were placed on an orbital shaker at 1200 rpm for 3 minutes. Plates were sealed and luminescence was measured a Tecan Spark 20M microplate reader (end-point measurement with 0.1 second reading time). Values were normalized to DMSO ctrl and wells without cells (only medium ctrl). Decrease in luminescence directly correlates with inhibition of HIF2α activity. IC50 values and % effect values were calculated by GraphPad Prism.

[3] = molecular target: T2, HIF2a (240-350)-G (Homo sapiens, UniProt Q99814); experiment: ITC; assay type: binding
T2 construct: The protein, HIF2a (240-350)-G, was prepared by recombinant overexpression; made in house
Protocol: ITC measurements were performed with a VP-ITC microcalorimeter from MicroCal/Malvern (UK). For all titration experiments the protein and the respective compounds were formulated in 30 mM HEPES buffer pH 7.5, 150 mM NaCl and 5 mM ß-mercaptoethanol. The protein, HIF2a (240-350)-G, was prepared by recombinant overexpression and multistep chromatography purification. Compounds were used from concentrated DMSO stock solutions. The final protein concentration in the injection syringe was 100 μM. Ligand stock solutions of 10 mM in DMSO were diluted to 10 μM concentrations with buffer and loaded into the sample cell. All buffers were adjusted to a final concentration of 1% (v/v) DMSO. Both, the titrate and titrant solutions were degassed prior to loading the calorimeter cell and injection syringe. […] The integrated heat data were fit with a one-site binding model to determine the apparent values for affinity, enthalpy and stoichiometry of binding.

T1 sequence (Q99814 240-350): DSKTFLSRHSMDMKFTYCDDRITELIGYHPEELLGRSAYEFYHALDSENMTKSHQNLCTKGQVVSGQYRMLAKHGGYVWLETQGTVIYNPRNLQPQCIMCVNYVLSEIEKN
T2 sequence (Q99814 240-350): as above

Compound | IC50 [1] [nM] | IC50 [2] [nM] | Kd [3] [nM]
CS(=O)(=O)c1sc(-c2ccccc2)c2c1[C@H](O)CCC2 [Example 36a, (4R)-3-methanesulfonyl-1-phenyl-4,5,6,7-tetrahydro-2-benzothiophen-4-ol] | > 1000 | > 1000 | –
CS(=O)(=O)c1sc(-c2ccccc2F)c2c1[C@H](O)C(F)(F)C2 [Example 27a, (4S)-5,5-difluoro-1-(2-fluorophenyl)-3-methanesulfonyl-4H,6H-cyclopenta[c]thiophen-4-ol] | > 1000 | – | > 1000
CS(=O)(=O)c1sc(-c2ccccc2)c2c1[C@H](O)C(F)(F)C2 [Example 25a, (4S)-5,5-difluoro-3-methanesulfonyl-1-phenyl-4H,6H-cyclopenta[c]thiophen-4-ol] | > 1000 | – | > 1000
Cc1cc(-c2sc(S(C)(=O)=O)c3c2CCC(F)(F)[C@H]3O)n(C)n1 [Example 50a, (4S)-1-(1,3-dimethyl-1H-pyrazol-5-yl)-5,5-difluoro-3-methanesulfonyl-4,5,6,7-tetrahydro-2-benzothiophen-4-ol] | > 1000 | – | –
CS(=O)(=O)c1sc(-c2cncc(C#N)c2)c2c1[C@H](O)C(F)(F)CC2 [Example 59a, 5-[(4S)-5,5-difluoro-4-hydroxy-3-methanesulfonyl-4,5,6,7-tetrahydro-2-benzothiophen-1-yl]pyridine-3-carbonitrile] | > 1000 | – | –
CS(=O)(=O)c1sc(-c2cccc(F)c2)c2c1[C@H](O)C(F)(F)C2 [Example 28a, (4S)-5,5-difluoro-1-(3-fluorophenyl)-3-methanesulfonyl-4H,6H-cyclopenta[c]thiophen-4-ol] | > 1000 | – | > 1000
COc1ncc(-c2sc(S(C)(=O)=O)c3c2CCC(F)(F)[C@H]3O)cc1Cl [Example 65a, (4S)-1-(5-chloro-6-methoxypyridin-3-yl)-5,5-difluoro-3-methanesulfonyl-4,5,6,7-tetrahydro-2-benzothiophen-4-ol] | > 1000 | – | –
CS(=O)(=O)c1sc(-c2cccc(F)c2)c2c1[C@H](O)C(F)(F)CC2 [Example 37a, (4S)-5,5-difluoro-1-(3-fluorophenyl)-3-methanesulfonyl-6,7-dihydro-4H-2-benzothiophen-4-ol] | > 1000 | > 1000 | > 1000
Cc1nn(C)cc1-c1sc(S(C)(=O)=O)c2c1CCC(F)(F)[C@H]2O [Example 39a, (4S)-1-(1,3-dimethyl-1H-pyrazol-4-yI)-5,5-difluoro-3-methanesulfonyl-4,5,6,7-tetrahydro-2-benzothiophen-4-ol] | > 1000 | – | –
Cn1nccc1-c1sc(S(C)(=O)=O)c2c1CC(F)(F)[C@H]2O [Example 47a, (4S)-5,5-difluoro-3-methanesulfonyl-1-(1-methyl-1H-pyrazol-5-yl)-4H,5H,6H-cyclopenta[c]thiophen-4-ol] | > 1000 | > 1000 | –
CS(=O)(=O)c1sc(-c2cncc(F)c2)c2c1[C@H](O)C(F)(F)CC2 [Example 58a, (4S)-5,5-difluoro-1-(5-fluoropyridin-3-yl)-3-methanesulfonyl-4,5,6,7-tetrahydro-2-benzothiophen-4-ol] | > 1000 | – | –
CS(=O)(=O)c1sc(-c2cncc(C(F)(F)F)c2)c2c1[C@H](O)C(F)(F)CC2 [Example 62a, (4S)-5,5-difluoro-3-methanesulfonyl-1-[5-(trifluoromethyl)pyridin-3-yl]-4,5,6,7-tetrahydro-2-benzothiophen-4-ol] | 50 to 1000 | > 1000 | –
Cn1nc(-c2sc(S(C)(=O)=O)c3c2CCC(F)(F)[C@H]3O)cc1C#N [Example 54a, 3-[(4S)-5,5-difluoro-4-hydroxy-3-methanesulfonyl-4,5,6,7-tetrahydro-2-benzothiophen-1-yl]-1-methyl-1H-pyrazole-5-carbonitrile] | > 1000 | > 1000 | –
Cc1cc(-c2sc(S(C)(=O)=O)c3c2CC(F)(F)[C@H]3O)n(C)n1 [Example 49a, (4S)-1-(1,3-dimethyl-1H-pyrazol-5-yl)-5,5-difluoro-3-methanesulfonyl-4H,5H,6H-cyclopenta[c]thiophen-4-ol] | > 1000 | – | –
CS(=O)(=O)c1sc(-c2cc(F)nc(Cl)c2)c2c1[C@H](O)C(F)(F)CC2 [Example 63a, (4S)-1-(2-chloro-6-fluoropyridin-4-yl)-5,5-difluoro-3-methanesulfonyl-4,5,6,7-tetrahydro-2-benzothiophen-4-ol] | < 50 | > 1000 | 50 to 1000
Cc1cncc(-c2sc(S(C)(=O)=O)c3c2CCC(F)(F)[C@H]3O)c1 [Example 57a, (4S)-5,5-difluoro-3-methanesulfonyl-1-(5-methylpyridin-3-yl)-4,5,6,7-tetrahydro-2-benzothiophen-4-ol] | > 1000 | – | –
Cn1nc(C#N)cc1-c1sc(S(C)(=O)=O)c2c1CCC(F)(F)[C@H]2O [Example 51a, 5-[(4S)-5,5-difluoro-4-hydroxy-3-methanesulfonyl-4,5,6,7-tetrahydro-2-benzothiophen-1-yl]-1-methyl-1H-pyrazole-3-carbonitrile] | > 1000 | – | –
Cn1nc(C(F)(F)F)cc1-c1sc(S(C)(=O)=O)c2c1CCC(F)(F)[C@H]2O [Example 46a, (4S)-5,5-difluoro-3-methanesulfonyl-1-[1-methyl-3-(trifluoromethyl)-1H-pyrazol-5-yl]-4,5,6,7-tetrahydro-2-benzothiophen-4-ol] | > 1000 | > 1000 | –
Cn1cc(-c2sc(S(C)(=O)=O)c3c2CCC(F)(F)[C@H]3O)cn1 [Example 40a, (4S)-5,5-difluoro-3-methanesulfonyl-1-(1-methyl-1H-pyrazol-4-yl)-4,5,6,7-tetrahydro-2-benzothiophen-4-ol] | > 1000 | – | –
Cn1cc(-c2sc(S(C)(=O)=O)c3c2CC(F)(F)[C@H]3O)cn1 [Example 35a, (4S)-5,5-difluoro-3-methanesulfonyl-1-(1-methyl-1H-pyrazol-4-yl)-4H,5H,6H-cyclopenta[c]thiophen-4-ol] | > 1000 | – | –
Cn1nc(C(F)(F)F)cc1-c1sc(S(C)(=O)=O)c2c1CC(F)(F)[C@H]2O [Example 48a, (4S)-5,5-difluoro-3-methanesulfonyl-1-[1-methyl-3-(trifluoromethyl)-1H-pyrazol-5-yl]-4H,5H,6H-cyclopenta[c]thiophen-4-ol] | > 1000 | > 1000 | –
CS(=O)(=O)c1sc(-c2cncc(Cl)c2)c2c1[C@H](O)C(F)(F)CC2 [Example 56a, (4S)-1-(5-chloropyridin-3-yl)-5,5-difluoro-3-methanesulfonyl-4,5,6,7-tetrahydro-2-benzothiophen-4-ol] | 50 to 1000 | > 1000 | –
CS(=O)(=O)c1sc(-c2cnc(Cl)c(F)c2)c2c1[C@H](O)C(F)(F)CC2 [Example 61a, (4S)-1-(6-chloro-5-fluoropyridin-3-yl)-5,5-difluoro-3-methanesulfonyl-4,5,6,7-tetrahydro-2-benzothiophen-4-ol] | 50 to 1000 | > 1000 | –
